Measurements published in ChEMBL document CHEMBL4680139, “Antiproliferative activity of diarylnaphthylpyrrolidine derivative via dual target inhibition” (Eur J Med Chem, 2020).

Assays:
HCT-116 = experiment: Antiproliferative activity against human HCT-116 cells assessed as inhibition of cell growth measured after 48 hrs by SRB assay; type: functional, cell-based; conditions: HCT-116, 48 h
THP-1 = experiment: Antiproliferative activity against human THP-1 cells assessed as inhibition of cell growth measured after 48 hrs by SRB assay; type: functional, cell-based; conditions: THP-1, 48 h
MCF7 [1] = experiment: Induction of apoptosis in human MCF-7 cells at 2.17 uM by propidium iodide staining based flow cytometry (reference value: 2.1%); type: functional
MDA-MB-231 [2] = experiment: Induction of apoptosis in human MDA-MB-231 cells at 2.6 uM by propidium iodide staining based flow cytometry (reference value: 2.6 +/- 0.28%); type: functional
MCF7 [3] = experiment: Induction of cell cycle arrest in human MCF-7 cells assessed as accumulation at G0/G1 phase at 8.66 uM by propidium iodide staining based flow cytometry (reference value: 74.5%); type: functional
MCF7 [4] = experiment: Induction of cell cycle arrest in human MCF-7 cells assessed as accumulation at S phase at 4.33 uM by propidium iodide staining based flow cytometry (reference value: 6.9%); type: functional
MDA-MB-231 [5] = experiment: Induction of cell cycle arrest in human MDA-MB-231 cells assessed as accumulation at S phase at 2.6 uM by propidium iodide staining based flow cytometry (reference value: 11.35 +/- 0.07%); type: functional
MCF7 [6] = experiment: Induction of cell cycle arrest in human MCF-7 cells assessed as accumulation at G2/M phase at 2.17 uM by propidium iodide staining based flow cytometry (reference value: 15.2%); type: functional
MDA-MB-231 [7] = experiment: Induction of cell cycle arrest in human MDA-MB-231 cells assessed as accumulation at G2/M phase at 5.21 uM by propidium iodide staining based flow cytometry (reference value: 8.35 +/- 0.07%); type: functional
MDA-MB-231 [8] = experiment: Induction of cell cycle arrest in human MDA-MB-231 cells assessed as accumulation at G2/M phase at 10.42 uM by propidium iodide staining based flow cytometry (reference value: 8.35 +/-0.07%); type: functional
MCF7 [9] = experiment: Induction of apoptosis in human MCF-7 cells assessed as proportion of viable cells at 2.17 uM measured after 24 hrs by Annexin V- FITC/propidium iodide staining based flow cytometry (reference value: 94.6%); type: functional
MCF7 [10] = experiment: Induction of apoptosis in human MCF-7 cells assessed as proportion of early apoptotic cells at 2.17 uM measured after 24 hrs by Annexin V- FITC/propidium iodide staining based flow cytometry (reference value: 0%); type: functional
MCF7 [11] = experiment: Induction of apoptosis in human MCF-7 cells assessed as proportion of viable cells at 4.33 uM measured after 24 hrs by Annexin V- FITC/propidium iodide staining based flow cytometry (reference value: 94.6%); type: functional
MCF7 [12] = experiment: Induction of apoptosis in human MCF-7 cells assessed as proportion of necrotic cells at 4.33 uM measured after 24 hrs by Annexin V- FITC/propidium iodide staining based flow cytometry (reference value: 5.3%); type: functional
MCF7 [13] = experiment: Induction of apoptosis in human MCF-7 cells assessed as proportion of viable cells at 8.66 uM measured after 24 hrs by Annexin V- FITC/propidium iodide staining based flow cytometry (reference value: 94.6%); type: functional
MDA-MB-231 [14] = experiment: Induction of apoptosis in human MDA-MB-231 cells assessed as proportion of early apoptotic cells at 2.6 uM measured after 24 hrs by Annexin V-FITC/propidium iodide staining based flow cytometry (reference value: 0.2%); type: functional
[15] = target: DNA topoisomerase 2-alpha (Homo sapiens) (UniProt P11388); experiment: Inhibition of DNA-topoisomerase 2 in human MCF7 cells using kinetoplast DNA as substrate at 17.32 uM measured by ELISA; type: cell-based
Chain of DNA topoisomerase 2-alpha (Homo sapiens) (P11388 whole entry): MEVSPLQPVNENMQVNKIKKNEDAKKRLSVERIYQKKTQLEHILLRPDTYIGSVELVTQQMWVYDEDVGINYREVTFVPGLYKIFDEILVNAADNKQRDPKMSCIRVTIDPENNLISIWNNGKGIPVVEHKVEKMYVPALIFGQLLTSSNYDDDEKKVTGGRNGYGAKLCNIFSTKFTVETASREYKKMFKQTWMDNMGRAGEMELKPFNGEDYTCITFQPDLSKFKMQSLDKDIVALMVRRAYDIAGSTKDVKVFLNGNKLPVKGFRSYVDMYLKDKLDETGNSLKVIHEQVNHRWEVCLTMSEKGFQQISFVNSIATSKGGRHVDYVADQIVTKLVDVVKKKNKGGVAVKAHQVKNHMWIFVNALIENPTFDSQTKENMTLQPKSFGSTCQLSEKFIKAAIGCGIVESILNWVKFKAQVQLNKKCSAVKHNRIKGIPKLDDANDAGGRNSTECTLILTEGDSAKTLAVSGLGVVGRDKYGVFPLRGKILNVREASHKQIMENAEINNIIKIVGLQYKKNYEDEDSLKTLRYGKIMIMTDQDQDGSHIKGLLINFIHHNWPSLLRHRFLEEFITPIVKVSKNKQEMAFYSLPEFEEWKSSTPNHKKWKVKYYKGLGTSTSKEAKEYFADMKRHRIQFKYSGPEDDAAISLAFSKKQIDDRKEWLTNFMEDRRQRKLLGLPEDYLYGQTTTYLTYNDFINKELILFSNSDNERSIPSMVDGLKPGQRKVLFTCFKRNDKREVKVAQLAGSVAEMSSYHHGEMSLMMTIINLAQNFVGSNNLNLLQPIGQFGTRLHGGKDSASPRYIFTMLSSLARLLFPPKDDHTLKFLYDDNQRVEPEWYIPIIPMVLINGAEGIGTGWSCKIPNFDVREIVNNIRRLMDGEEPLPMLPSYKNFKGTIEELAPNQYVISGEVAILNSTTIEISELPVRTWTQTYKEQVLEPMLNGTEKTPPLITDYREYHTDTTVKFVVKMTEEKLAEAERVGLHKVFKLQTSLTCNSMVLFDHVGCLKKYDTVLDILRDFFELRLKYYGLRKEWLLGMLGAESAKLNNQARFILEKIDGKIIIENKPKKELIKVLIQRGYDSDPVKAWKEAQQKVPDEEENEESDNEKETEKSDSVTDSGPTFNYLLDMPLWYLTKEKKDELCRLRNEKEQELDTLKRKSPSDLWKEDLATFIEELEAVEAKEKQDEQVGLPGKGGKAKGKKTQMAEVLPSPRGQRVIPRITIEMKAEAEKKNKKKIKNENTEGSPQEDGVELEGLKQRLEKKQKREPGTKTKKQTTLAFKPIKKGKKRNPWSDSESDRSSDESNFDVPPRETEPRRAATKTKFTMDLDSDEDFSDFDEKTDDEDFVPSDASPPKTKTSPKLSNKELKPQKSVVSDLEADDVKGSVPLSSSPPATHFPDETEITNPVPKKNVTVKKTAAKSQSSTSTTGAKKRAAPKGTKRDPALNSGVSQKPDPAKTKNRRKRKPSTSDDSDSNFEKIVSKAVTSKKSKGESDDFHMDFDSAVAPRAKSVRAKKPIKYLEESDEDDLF

[16] = Toxicity in Swiss albino mouse assessed as haemoglobin level in blood at 5 mg/kg, po administered as single dose (reference value: 12.05 +/-0.88 gm/dl); type: organism-based; conditions: in vivo
[17] = Toxicity in Swiss albino mouse assessed as SGOT level in serum at 5 mg/kg, po administered as single dose (reference value: 22.12 +/-1.91 U/L); type: organism-based; conditions: in vivo
[18] = Toxicity in Swiss albino mouse assessed as SGPT level in serum at 5 mg/kg, po administered as single dose (reference value: 21.81 +/-2.1 U/L); type: organism-based; conditions: in vivo
[19] = Toxicity in Swiss albino mouse assessed as albumin level in serum at 5 mg/kg, po administered as single dose (reference value: 0.56 +/-0.02 g/dl); type: organism-based; conditions: in vivo
[20] = Toxicity in Swiss albino mouse assessed as serum protein level at 5 mg/kg, po administered as single dose (reference value: 2.83 +/-0.09 mg/ml); type: organism-based; conditions: in vivo
[21] = Toxicity in Swiss albino mouse assessed as triglyceride level in serum at 5 mg/kg, po administered as single dose (reference value: 78.34 +/-2.99 mg/dl); type: organism-based; conditions: in vivo
[22] = Toxicity in Swiss albino mouse assessed as body weight at 50 mg/kg, po administered as single dose (reference value: 31.62 +/- 1.64 gms); type: organism-based; conditions: in vivo
[23] = Toxicity in Swiss albino mouse assessed as haemoglobin level in blood at 50 mg/kg, po administered as single dose (reference value: 12.05 +/-0.88 gm/dl); type: organism-based; conditions: in vivo
[24] = Toxicity in Swiss albino mouse assessed as ALP level in serum at 50 mg/kg, po administered as single dose (reference value: 195.8 +/-12.06 U/L); type: organism-based; conditions: in vivo
[25] = Toxicity in Swiss albino mouse assessed as SGPT level in serum at 50 mg/kg, po administered as single dose (reference value: 21.81 +/-2.1 U/L); type: organism-based; conditions: in vivo
[26] = Toxicity in Swiss albino mouse assessed as albumin level in serum at 50 mg/kg, po administered as single dose (reference value: 0.56 +/-0.02 g/dl); type: organism-based; conditions: in vivo
[27] = Toxicity in Swiss albino mouse assessed as serum protein level at 50 mg/kg, po administered as single dose (reference value: 2.83 +/-0.09 mg/ml); type: organism-based; conditions: in vivo
[28] = Toxicity in Swiss albino mouse assessed as creatinine level in serum at 50 mg/kg, po administered as single dose (reference value: 0.27+/-0.02 mg/dl); type: organism-based; conditions: in vivo
[29] = Toxicity in Swiss albino mouse assessed as body weight at 300 mg/kg, po administered as single dose (reference value: 31.62 +/- 1.64 gms); type: organism-based; conditions: in vivo
[30] = Toxicity in Swiss albino mouse assessed as RBC level in blood at 300 mg/kg, po administered as single dose (reference value: 10.56 +/- 1.22x10^6/mm3); type: organism-based; conditions: in vivo
[31] = Toxicity in Swiss albino mouse assessed as SGOT level in serum at 300 mg/kg, po administered as single dose (reference value: 22.12 +/-1.91 U/L); type: organism-based; conditions: in vivo
[32] = Toxicity in Swiss albino mouse assessed as albumin level in serum at 300 mg/kg, po administered as single dose (reference value: 0.56 +/-0.02 g/dl); type: organism-based; conditions: in vivo
[33] = Toxicity in Swiss albino mouse assessed as mortality upto 300 mg/kg, po administered as single dose; type: organism-based; conditions: in vivo
[34] = Toxicity in po dosed Swiss albino mouse administered as single dose; type: organism-based; conditions: in vivo

Q: Which results are given for `COc1ccc(C(c2ccccc2OCCN2CCCC2)c2cccc3ccccc23)c(OC)c1OC` (stereo unspecified)?
A: IC50 (HCT-116): 2.03 µM; IC50 (THP-1): 12.6 µM; Activity (MCF7 [1]): 2.2%; Activity (MDA-MB-231 [2]): 2.7%; Activity (MCF7 [3]): 66.5%; Activity (MCF7 [4]): 13.9%; Activity (MDA-MB-231 [5]): 6.75%; Activity (MCF7 [6]): 12.1%; Activity (MDA-MB-231 [7]): 10.2%; Activity (MDA-MB-231 [8]): 15.05%; Activity (MCF7 [9]): 77.8%; Activity (MCF7 [10]): 0%; Activity (MCF7 [11]): 63.1%; Activity (MCF7 [12]): 10.5%; Activity (MCF7 [13]): 61.8%; Activity (MDA-MB-231 [14]): 0.8%; inhibition [15]: 25.9%; Activity [16]: 11.35 g/dL; Activity [17]: 27.32 U/L; Activity [18]: 21.18 U/L; Activity [19]: 0.65 g/dL; Activity [20]: 2.27 mg/mL; Activity [21]: 77.24 mg/dL; Activity [22]: 30.44 g; Activity [23]: 9.96 g/dL; Activity [24]: 182.4 U/L; Activity [25]: 19.12 U/L; Activity [26]: 0.57 g/dL; Activity [27]: 2.52 mg/mL; Activity [28]: 0.34 mg/dL; Activity [29]: 31.03 g; Activity [30]: 11.64 million/mm3; Activity [31]: 25.61 U/L; Activity [32]: 0.54 g/dL; Activity [33]: Non-Toxic; MTD [34]: ≤ 300 mg/kg
